The values below come from patent US20140329863A1 (priority 2011, published 2014).

Molecules are shown by their SMILES. Where two headings read alike, the source gives them in different places.

Data set [1] in a line: Hepatic microsome stability, human. It counts as in vitro ADME. The settings on record: for hepatic extraction ratio (ER): human liver microsomes. As to the method:
(§1) Hepatic microsomal stability assays were performed in two stages. In the first set of experiments, aliquots of the DMSO solute stocks were diluted into ACN and then into assay buffer (PBS, pH 7.4, ±0.05% PS80). Final experimental solute concentrations were 1 μM (0.6% ACN, 0.01% DMSO). Commercially available mouse, rat, or human hepatic microsomes (˜0.5 mg/ml final concentration), and NADPH (1 mM) or PBS were added. The resulting mixture was incubated at 37° C., and aliquots removed at 0, 1, 10, 30 and 60 min, then quenched with ACN containing 2 μM carbamazepine (internal standard). […] Duplicate incubations were run for each time-point. The percentage of solute remaining at the end of the incubation was used to determine solute half-life.
(§2) These were diluted 500-fold into 1 mL of microsomal incubation mixture to yield a final concentration of 1 μM. The incubation mixture was composed of 100 mM phosphate buffer, pH 7.4, and NADPH regenerating system (BD Biosciences NADPH Regenerating System Solutions A & B). This mixture was preincubated at 37° C. for 5 min in an Eppendorf Thermo mixer, and the reaction initiated by addition of 0.5 mg (25 μl of a 20 mg/mL solution) of liver microsomes. Aliquots (100 μl) were withdrawn at 0, 5, 15, 30, and 60 min, and added to 100 μl ACN containing internal standard. […] The percentage of solute remaining at the end of the incubation was used to determine species-specific values of scaled intrinsic clearance, hepatic clearance, and predicted hepatic extraction based upon the calculations below {Obach, 1999 #9097}.
(§3) for which mg microsomal protein/gm liver was 45 for all species, and gm liver/kg body weight were 32 for dog, 88 for mouse, 40 for rat and 25 for human.
(§4) Clh=(Q*Clint,scaled)/(Q+Clint,scaled)
(§5) for which Q was hepatic blood flow; values of 90 ml/min/kg for mouse, 66 ml/min/kg for rat, and 21 ml/min/kg for human were used.
(§6) for which ER estimates the amount of compound cleared during a single pass through the liver (Low ER<0.3, moderate ER 0.3-0.7, high ER>0.7).

The conditions of data set [2]: for solubility in FaSSIF (in words): fasted-state simulated intestinal fluid; for solubility at pH 2.0 (in words): pH 2 (HCl) buffer.
Data set [3] can be described thus: Hepatic microsome stability, mouse. It counts as in vitro ADME. Conditions: mouse liver microsomes. Here is the method: as §1, §2, §3, §4, §5, §6
On the technique in general: Liver microsomes are a subcellular fraction often used to study metabolism.

The nature of data set [4]: Hepatic microsomal stability, rat. The settings on record: for half-life at 1 μM: Sprague-Dawley, pH 7.4.
Data set [5] is described as follows: Hepatic microsomal stability, mouse. The settings on record: for half-life at 1 μM: CD-1, mouse, pH 7.4.
A short description of data set [6]: Hepatic microsomal stability, human. The settings on record: for half-life at 1 μM: pH 7.4.
A short description of data set [7]: Single-dose pharmacokinetic studies in female FVB mice (PO, IV, IP). Format: in vivo, mouse. Conditions: female, mouse, 10 mg/kg; for bioavailability: FVB, plasma, mice, IV 1 mg/kg, oral 10 mg/kg, read-out: oral (absolute) bioavailability. As to the method: For in-vivo pharmacokinetic studies, compounds were dissolved in a formulation containing 20% propylene glycol, 5% ethanol, 5% labrosol, and 70% polyethylene glycol 400 (PEG400) and administered by oral gavage to female FVB mice weighing ˜25 g. At specified time points after dosing (0.25, 0.5, 1, 2, 4, 6, and 24 h), 2 animals were euthanized by CO2, and ˜1 mL blood (by cardiac puncture) and brain samples were collected. The heparinized blood samples were centrifuged to obtain plasma, which was stored at −80° C. until analysis. Brain samples were weighed, diluted […] with water, and then homogenized using a Precellys 24 tissue homogenizer. Brain homogenates (20% wt/vol) were stored at −80° C. until analysis. Pharmacokinetic protocols involving animals were all reviewed and approved by the UCSF institutional animal care and use committee (IACUC).
Plasma and brain homogenate samples were extracted using a protein-precipitation method and analyzed by specific LC/MS/MS methods developed for each compound dosed in vivo. The analytical method accuracy and precision were monitored by analyzing quality control (QC) samples that were prepared and treated using the same methods as calibration standards for the plasma or brain homogenate samples.
The data were used to calculate the area under the concentration-time curve (AUClast) by noncompartmental analysis with sparse sampling performed using Phoenix WinNonlin 6.1 software (Pharsight, Mountain View, Calif.).
Pharmacokinetic protocols employing mice were reviewed and approved by the UCSF Institutional Animal Care and Use Committee (IACUC). Female FVB mice, weighing approximately 25 g, were used for all in vivo pharmacokinetic studies. Mice were housed with free access to food and water, and were maintained on 12-h light/dark cycles for 1 week before dosing studies were initiated.
For the single-dose of 40 mg/kg, compounds were dissolved in a formulation containing 5% propylene glycol, […] α-tocopheryl polyethylene glycol 1000 succinate (TPGS) and 70% polyethylene glycol 400 (PEG400), and administered by oral gavage. Two animals per time point were used. At specified time points after dosing (0.5, 1, 2, 4, 6, and 24 h), animals were euthanized by CO2, and blood for plasma (by cardiac puncture) and brain samples were collected. The heparinized blood samples were centrifuged to obtain plasma. Brain samples were weighed, diluted 10-fold with water, and then homogenized using a Precellys 24 tissue homogenizer. The brain and plasma samples were flash-frozen on dry ice and then stored at −80° C. until analysis. For the single-dose administration at 10 mg/kg, compounds were dissolved in a formulation containing 20% propylene glycol, 5% ethanol, 5% labrosol, and 70% PEG400, and administered by oral gavage. Two animals per time point were used. At specified time points after dosing (0.25, 0.5, 1, 2, 4, 6, and 24 h), animals were euthanized by CO2, and blood for plasma (by cardiac puncture) and brain samples were collected. The heparinized blood samples were centrifuged to obtain plasma. Brain samples were weighed, diluted five-fold with water, and then homogenized using a Precellys 24 tissue homogenizer. The brain and plasma samples were flash-frozen on dry ice and then stored at −80° C. until analysis.
Compounds were administered through tail vein injection. Two animals per time point were used. At specified time points after dosing (5 min, 0.25, 0.5, 1, 2, 4, and 6 h), animals were euthanized by CO2. Blood and brain samples were obtained and processed as described above for the oral dosing at 40 mg/kg.
Plasma and brain homogenate samples were extracted using a protein-precipitation method and analyzed by specific LC/MS/MS methods developed for each compound dosed in vivo. The analytical method accuracy and precision were monitored by analyzing quality control (QC) samples that were prepared by the same methods as the plasma or brain homogenate samples. […]

A short description of data set [8]: Tolerability / toxicity on repeated dosing in mice. Conditions: chronic studies in mice, wide range of doses.

For the compound `Cc1ccc(Nc2nc(-c3cc(-c4ccccc4)no3)cs2)nc1` [IND33, (5-Methyl-pyridin-2-yl)-[4-(3-phenyl-isoxazol-5-yl)-thiazol-2-yl]-amine], the “hepatic extraction ratio (ER)” value in data set [1] and in data set [3] was “lower to moderate” in each case. Moreover, the “solubility in FaSSIF (in words)” value in data set [2] is listed as “higher solubility”. The “solubility at pH 2.0 (in words)” value in data set [2] is “lower”. The half-life at 1 μM in data set [4] (rat) is above 60 min; in data set [5] (liver microsomes), 99 min; in data set [5] (mouse liver microsomes), above 60 min; in data set [6] (human, human liver microsomes), 54 min; in data set [6] (human, liver microsomes), 54 min. The “% remaining after a 60-min incubation, Rat” value (shortened to “% remaining … Rat”) in data set [4] is reported as 73%. Besides, in data set [4] (rat microsomes), the “Hepatic Extraction Ratio Rat” value is 0.3. In addition, in data set [4] (rat microsomes), the “t1/2 Rat (extrapolated)” value is reported as 151* min. Besides, the “% remaining after a 60-min incubation, Mouse” value (“% remaining … Mouse” for short) in data set [5] (mouse liver microsomes) stood at 111%. Besides, the “Hepatic Extraction Ratio Mouse” value in data set [5] (mouse microsomes) is 0.5. Besides, the “Hepatic Extraction Ratio Human” value in data set [6] (human) and in data set [6] (human microsomes) was 0.7 throughout. In addition, the “% remaining after a 60-min incubation, Human” value (from here on “% remaining … Human”) in data set [6] (human liver microsomes) is on record as 42%.
Turning to `Cc1ccnc(Nc2nc(-c3ccc(-c4ccccn4)s3)cs2)c1` [IND81, (4-Methyl-pyridin-2-yl)-[4-(5-pyridin-2-yl-thiophen-2-yl)-thiazol-2-yl]-amine], the “metabolism in HLM incubations” value in data set [1] (pooled human liver microsomes, 1 μM, 60 min, with or without CYP inhibitors) is given as “relatively high turnover”. Also, the “solubility in FaSSIF (in words)” value in data set [2] is on record as “lower solubility”. The “solubility at pH 2.0 (in words)” value in data set [2] was “higher solubility”. Also, the bioavailability was in the range of 27 to 40% in data set [7] (oral) and 25 to 27% in data set [7] (po). In addition, the Kp in data set [7] (brain and plasma, FVB mice, single oral dose, read-out: brain:plasma AUClast ratio) was determined as 5.5. Besides, the tolerability entry in data set [8] is on record as “well tolerated”. For the same compound, the half-life at 1 μM in data set [4] (rat) was 58 min; in data set [5] (liver microsomes), 19 min; in data set [5] (mouse liver microsomes) it was 19 min; in data set [5] (female, liver microsomes), 26 min; in data set [5] (male, liver microsomes), 23 min; in data set [6] (both, human, liver microsomes) it was 40 min. Also, the half-life at 1 μM in data set [6] (human, human liver microsomes) was found to be 52 min; in data set [6] (human, liver microsomes) it was 52 min. For the same compound, the “% remaining … Rat” value in data set [4] is on record as 48%. Besides, in data set [5] (mouse liver microsomes), the “% remaining … Mouse” value amounted to 10%. Further, the “% remaining … Human” value in data set [6] (human liver microsomes) is given as 48%.
With `Cc1ccnc(Nc2nc(-c3ccncc3)cs2)c1` [IND52, (4-Methyl-pyridin-2-yl)-(4-pyridin-4-yl-thiazol-2-yl)-amine], the “hepatic extraction ratio (ER)” value in data set [1] and in data set [3] was “higher” in each case. Also, the half-life at 1 μM in data set [4] (rat) was 16 min; in data set [5] (liver microsomes) it was 6 min; in data set [5] (mouse liver microsomes), 6 min; in data set [6] (human, human liver microsomes), 36 min; in data set [6] (human, liver microsomes), 36 min. For the same compound, the “% remaining … Rat” value in data set [4] is recorded as 8%. Moreover, the “Hepatic Extraction Ratio Rat” value in data set [4] (rat) and in data set [4] (rat microsomes) was 0.8 each time. Further, the “Hepatic Extraction Ratio Mouse” value in data set [5] (mouse) and in data set [5] (mouse microsomes) was 0.95 each time. Moreover, in data set [5] (mouse liver microsomes), the “% remaining … Mouse” value is given as 0%. The “Hepatic Extraction Ratio Human” value in data set [6] (human) and in data set [6] (human microsomes) was 0.8 in each case. Also, the “% remaining … Human” value in data set [6] (human liver microsomes) came to 30%.
Consider `c1ccc2cc(Nc3nc(-c4ccncc4)cs3)ncc2c1` [IND85, Isoquinolin-3-yl-(4-pyridin-4-yl-thiazol-2-yl)-amine], for which the “hepatic extraction ratio (ER)” value in data set [1] and in data set [3] was “higher” in each case. For the same compound, the “solubility in FaSSIF (in words)” value in data set [2] is given as “lower solubility”. For the same compound, in data set [2], the “solubility at pH 2.0 (in words)” value is given as “higher solubility”. Further, the half-life at 1 μM in data set [4] (rat) turned out to be 18 min; in data set [5] (liver microsomes), 15 min; in data set [5] (mouse liver microsomes), 15 min; in data set [6] (human, human liver microsomes), 53 min; in data set [6] (human, liver microsomes), 53 min. Also, the “% remaining … Rat” value in data set [4] is 32%. In addition, the “Hepatic Extraction Ratio Rat” value in data set [4] (rat) and in data set [4] (rat microsomes) was 0.8 throughout. For the same compound, the “Hepatic Extraction Ratio Mouse” value in data set [5] (mouse) and in data set [5] (mouse microsomes) was 0.9 throughout. Besides, the “% remaining … Mouse” value in data set [5] (mouse liver microsomes) is reported as 6%. Also, the “Hepatic Extraction Ratio Human” value in data set [6] (human) and in data set [6] (human microsomes) was 0.7 each time. In addition, the “% remaining … Human” value in data set [6] (human liver microsomes) was determined as 66%.
Consider `COc1ccc(-c2csc(Nc3ccc4ccccc4n3)n2)cc1OC` [IND47, [4-(3,4-Dimethoxy-phenyl)-thiazol-2-yl]-quinolin-2-yl-amine], for which the “hepatic extraction ratio (ER)” value in data set [1] and in data set [3] was “lower to moderate” throughout. The “solubility in FaSSIF (in words)” value in data set [2] is “lower solubility”. Also, the “solubility at pH 2.0 (in words)” value in data set [2] was “lower solubility”. Also, the half-life at 1 μM was above 60 min in data set [4] (rat); 72 min in data set [5] (liver microsomes); above 60 min in data set [5] (mouse liver microsomes); above 60 min in data set [6] (human, human liver microsomes); above 60 min in data set [6] (human, liver microsomes). Moreover, the “% remaining … Rat” value in data set [4] is listed as 50%. Also, the “Hepatic Extraction Ratio Rat” value in data set [4] (rat microsomes) is reported as 0.5. The “t1/2 Rat (extrapolated)” value in data set [4] (rat microsomes) was 69* min. In addition, the “% remaining … Mouse” value in data set [5] (mouse liver microsomes) came out at 56%. For the same compound, in data set [5] (mouse microsomes), the “Hepatic Extraction Ratio Mouse” value is given as 0.6. For the same compound, the “% remaining … Human” value in data set [6] (human liver microsomes) is recorded as 113%.

By half-life is commonly meant the time needed for the level to fall by half in the phase considered. By bioavailability is commonly meant dose-corrected exposure relative to a reference, in per cent.
